Reference: paper PMC6214014, “Dendrimeric Poly(Epsilon-Lysine) Delivery Systems for the Enhanced Permeability of Flurbiprofen across the Blood-Brain Barrier in Alzheimer’s Disease” (International Journal of Molecular Sciences, 2018)
“And” between values parts separate entries of the source, which are not always exact repeats. Equal entries are not always repeated.

How the values were obtained:
[1] = test system: in vitro BBB model (bEnd.3 cells); assay: Penetration across the in vitro BBB model (bEnd.3 monolayer on Transwell inserts, HPLC); type: in vitro ADME, mouse; details: bEnd.3 Transwell, n = 6
Description: The lyophilised powders of synthesised molecules (G0K-FP and G1K-FP) as well as free drug (FP) were dissolved in the FBS-free; phenol-free culture media in a concentration of 200 µM. Quantitative analysis of drug and drug-attached dendrons penetration was conducted using HPLC (Agilent technology/1260 infinity, Stockport, UK). The analysis was carried out using a hydrophobic C18 column (150 × 4.6 mm) and a UV-detection wavelength 248 nm which is the λmax of FP [5]. The gradient of eluent of the mobile phase was run from 75:25 to 25:75 of water: acetonitrile over 20 min. The standard curve for each molecule was obtained to calculate the percentage of transported amount across the in vitro BBB model.
To establish an in vitro BBB model, bEnd.3 cells were cultured on microporous membrane (0.4 µm pore size) of 12-Transwell inserts (Fisher Scientific) with complete culture media. TEER values between apical and basolaterl chambers was measured using an Evom voltometer (Sarasota, FL, USA) to determine the day of maximum values indicating tight junction formation. The measurements were taken up to day 8 of culturing and compared to the results of HUVECs which were also cultured into Transwell-clear inserts. Cell-free Transwell inserts were included to exclude the resistance related to the inserts membrane alone. The apical chambers of bEnd.3 culture were then treated with 200 µM of each samples. After 1 and 4 h incubation, 200 µL samples were taken from the basolateral chambers and percentage of permeability calculated according to the following:PMaterial % = ((CAcceptor × VAcceptor)/(CDonor × VDonor)) × 100%(1) where PMaterial %: the percentage of permeability of the tested material, CAcceptor: the concentration of the tested material in basal chamber, VAcceptor: the volume of the culture media in the basal chamber, CDonor: the initial concentration of the tested material in the apical chamber, VDonor: the volume of the culture media in the apical chamber.

[2] = test system: γ-secretase enzyme; assay: Quantification of γ-secretase enzyme in C6 glial cells (sandwich ELISA); type: cell-based; details: 200 µM, 4 h incubation, untreated control 28.43 ± 8.32 pg/mL, n = 6
Description: The C6 glial cells seeded in a density of 5 × 10^4 cells per cm^2 and incubated at 37 °C and 5% CO2. The investigation is based on sandwich enzyme-linked immune-sorbent assay (ELISA) technology using γ-secretase enzyme kit (Abbexa Ltd., Cambridge, UK). C6 glial cells were cultured in 24-well plates at density 5 × 10^4 cells per cm^2, and at confluence, they were treated with 200 μM FP, […]-FP, or […]-FP dissolved in […] media. Wells containing untreated C6 cells were also included as a control. After 4 h incubation, cells were washed with PBS and lysed via freezing to -20 °C and thawing to room temperature 3 times. […] The collected samples were used immediately to avoid any degradation and denaturalisation. The standard curve of γ-secretase standards (supplied with kit) was constructed and the concentration of γ-secretase was calculated for each sample.

[3] = set-up: method as in PMID 7736686; details: cited from earlier work
[4] = set-up: method as in PMID 7736686; details: cited from earlier work; remark: listed apart in the source
[5] = test system: γ-secretase; set-up: method as in PMID 20009055, PMID 18450517; details: at the target tissue site; cited from earlier work
[6] = test system: bEnd.3 cells monolayer; set-up: method as in PMID 24280275; details: cited from earlier work
[7] = test system: brain endothelial cells and Caco-2 cell monolayers; set-up: method as in PMID 23089576; details: cited from earlier work
[8] = 1 h after applying 200 µM to apical chamber
[9] = 4 h after applying 200 µM to apical chamber

CC(C(=O)NCCCC[C@H](NC(=O)C(C)c1ccc(-c2ccccc2)c(F)c1)C(=O)N[C@@H](Cc1ccccc1)C(=O)O)c1ccc(-c2ccccc2)c(F)c1 (stereo partly drawn) [G0K-FP, Generation 0 lysine dendron-2Flurbiprofen]
% Of Permeability (Mean ± SD) [1, 8]: 5.3% and 5.31 ± 2.73%
% Of Permeability (Mean ± SD) [1, 9]: 12.5% and 12.48 ± 3.42%

CC(C(=O)NCCCC[C@H](NC(=O)C(C)c1ccc(-c2ccccc2)c(F)c1)C(=O)NCCCC[C@H](NC(=O)[C@H](CCCCNC(=O)C(C)c1ccc(-c2ccccc2)c(F)c1)NC(=O)C(C)c1ccc(-c2ccccc2)c(F)c1)C(=O)N[C@@H](Cc1ccccc1)C(=O)O)c1ccc(-c2ccccc2)c(F)c1 (stereo partly drawn) [G1K-FP, Generation 1 lysine dendron-4Flurbiprofen]
% Of Permeability (Mean ± SD) [1, 8]: 4.3% and 4.32 ± 1.05%
% Of Permeability (Mean ± SD) [1, 9]: 14.8% and 14.79 ± 2.06%

CC(C(=O)O)c1ccc(-c2ccccc2)c(F)c1 (stereo not drawn) [FP, Flurbiprofen]
% Of Permeability (Mean ± SD) [1, 8]: 2.71 ± 1.52%
% Of Permeability (Mean ± SD) [1, 9]: 8.50 ± 1.32%
% Of Permeability (Mean ± SD) ([1]; 4 h after applying 200 µM to apical chamber, listed as Free FP): less than 9%
% Of Permeability (Mean ± SD) ([1]; 4 h after applying 200 µM to apical chamber, listed as free drug): not more than 8.5%
γ-Secretase Enzyme Concentration (Mean ± SD) [2]: 8.2 pg/mL and 8.20 ± 3.80 pg/mL
biological half-life [3]: 4 h
time to full excretion from the body [3]: ≤ 24 h
water solubility [4]: poorly water-soluble
required therapeutic concentration for pharmacologically-significant effect on γ-secretase activity [5]: 150–250 µM
diffusion through bEnd.3 cells monolayer [6]: approximately 10%

paclitaxel
fold greater permeability than paclitaxel alone [7]: 12 fold
